Assay results as given in BindingDB's records for doi:10.1021/jm000541z (Abbott Laboratories, 2001).

target: Alpha-1B adrenergic receptor (Mesocricetus auratus) (UniProt P18841); test: Binding affinity to hamster alpha-1B adrenergic receptor
Sequence (P18841 whole entry, looked up): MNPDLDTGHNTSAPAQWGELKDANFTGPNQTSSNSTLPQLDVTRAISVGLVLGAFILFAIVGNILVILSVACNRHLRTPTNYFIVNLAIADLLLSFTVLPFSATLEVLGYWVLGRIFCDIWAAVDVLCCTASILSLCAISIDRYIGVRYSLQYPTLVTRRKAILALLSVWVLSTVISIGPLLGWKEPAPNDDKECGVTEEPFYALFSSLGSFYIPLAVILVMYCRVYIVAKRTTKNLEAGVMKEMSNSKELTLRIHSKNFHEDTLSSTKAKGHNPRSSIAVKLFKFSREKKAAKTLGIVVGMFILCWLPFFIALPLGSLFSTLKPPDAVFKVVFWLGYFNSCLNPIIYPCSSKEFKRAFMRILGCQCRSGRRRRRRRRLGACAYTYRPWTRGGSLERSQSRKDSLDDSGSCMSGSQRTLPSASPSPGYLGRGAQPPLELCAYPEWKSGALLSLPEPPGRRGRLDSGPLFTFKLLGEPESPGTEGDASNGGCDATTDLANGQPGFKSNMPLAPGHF

| Structure (SMILES) | Ki |
| --- | --- |
| COc1cc(N)c(C(=O)NCCN2C[C@@H]3CCc4c(OC)cccc4[C@@H]3C2)cc1OC [2-Amino-4,5-dimethoxy-N-[2-(6-methoxy-1,3,3a,4,5,9b-hexahydro-benzo[e]isoindol-2-yl)-ethyl]-benzamide] | 29.1 nM |
| COc1cc2c(cc1OC)CN(CCN1C[C@@H]3CCc4c(OC)cccc4[C@@H]3C1)CC2 [2-[2-(6,7-Dimethoxy-3,4-dihydro-1H-isoquinolin-2-yl)-ethyl]-6-methoxy-2,3,3a,4,5,9b-hexahydro-1H-benzo[e]isoindole] | 116 nM |
| COc1cccc2c1CC[C@H]1CN(CCn3c(=O)[nH]c4c(sc5ncc(Cl)nc54)c3=O)C[C@@H]21 [3-Chloro-7-[2-(6-methoxy-1,3,3a,4,5,9b-hexahydro-benzo[e]isoindol-2-yl)-ethyl]-5H-9-thia-1,4,5,7-tetraaza-fluorene-6,8-dione] | 35.1 nM |
| COc1cccc2c1CC[C@H]1CN(CCn3c(=O)[nH]c4nccnc4c3=O)C[C@@H]21 [3-[2-(6-Methoxy-1,3,3a,4,5,9b-hexahydro-benzo[e]isoindol-2-yl)-ethyl]-1H-pteridine-2,4-dione] | 12.6 nM |
| COc1cccc2c1CC[C@H]1CN(CCn3c(=O)[nH]c4cccnc4c3=O)C[C@@H]21 [3-[2-(6-Methoxy-1,3,3a,4,5,9b-hexahydro-benzo[e]isoindol-2-yl)-ethyl]-1H-pyrido[3,2-d]pyrimidine-2,4-dione] | 8.2 nM |
| COc1cccc2c1CC[C@H]1CN(CCn3c(=O)[nH]c4ccncc4c3=O)C[C@@H]21 [3-[2-(6-Methoxy-1,3,3a,4,5,9b-hexahydro-benzo[e]isoindol-2-yl)-ethyl]-1H-pyrido[4,3-d]pyrimidine-2,4-dione] | 10.6 nM |

Stronger by Ki, values ahead:

| Ki | Structure (SMILES) |
| --- | --- |
| 2.58 nM | COc1cccc2c1CC[C@H]1CN(CCn3c(=O)[nH]c4[nH]ccc4c3=O)C[C@@H]21 [3-[2-(6-Methoxy-1,3,3a,4,5,9b-hexahydro-benzo[e]isoindol-2-yl)-ethyl]-1,7-dihydro-pyrrolo[2,3-d]pyrimidine-2,4-dione] |
| 3.31 nM | COc1cccc2c1CC[C@H]1CN(CCn3c(=O)[nH]c4ncccc4c3=O)C[C@@H]21 [3-[2-(6-Methoxy-1,3,3a,4,5,9b-hexahydro-benzo[e]isoindol-2-yl)-ethyl]-1H-pyrido[2,3-d]pyrimidine-2,4-dione] |
| 3.1 nM | COc1cccc2c1CC[C@H]1CN(CCn3c(=O)[nH]c4cnccc4c3=O)C[C@@H]21 [3-[2-(6-Methoxy-1,3,3a,4,5,9b-hexahydro-benzo[e]isoindol-2-yl)-ethyl]-1H-pyrido[3,4-d]pyrimidine-2,4-dione] |
| 1.16 nM | COc1cccc2c1CC[C@H]1CN(CCn3c(=O)[nH]c4ccccc4c3=O)C[C@@H]21 [3-[2-(6-Methoxy-1,3,3a,4,5,9b-hexahydro-benzo[e]isoindol-2-yl)-ethyl]-1H-quinazoline-2,4-dione] |
| 2.11 nM | COc1cccc2c1CC[C@H]1CN(CCn3c(=O)[nH]c4sccc4c3=O)C[C@@H]21 [3-[2-(6-Methoxy-1,3,3a,4,5,9b-hexahydro-benzo[e]isoindol-2-yl)-ethyl]-1H-thieno[2,3-d]pyrimidine-2,4-dione] |
| 1.63 nM | COc1cccc2c1CC[C@H]1CN(CCn3c(=O)[nH]c4ccsc4c3=O)C[C@@H]21 [3-[2-(6-Methoxy-1,3,3a,4,5,9b-hexahydro-benzo[e]isoindol-2-yl)-ethyl]-1H-thieno[3,2-d]pyrimidine-2,4-dione] |
| 1.01 nM | COc1cccc2c1CC[C@H]1CN(CCn3c(=O)[nH]c4cscc4c3=O)C[C@@H]21 [3-[2-(6-Methoxy-1,3,3a,4,5,9b-hexahydro-benzo[e]isoindol-2-yl)-ethyl]-1H-thieno[3,4-d]pyrimidine-2,4-dione] |
| 1.56 nM | COc1cccc2c1CC[C@H]1CN(CCn3c(=O)[nH]c4cc(C#N)ccc4c3=O)C[C@@H]21 [3-[2-(6-Methoxy-1,3,3a,4,5,9b-hexahydro-benzo[e]isoindol-2-yl)-ethyl]-2,4-dioxo-1,2,3,4-tetrahydro-quinazoline-7-carbonitrile] |
